According to US20260250290A1 (BRISTOL-MYERS SQUIBB COMPANY, priority 2023, published 2026):
Where a name gives a salt, the structure may show the parent alone.

Biological target: T1, full length SGK1 (Homo sapiens, UniProt O00141)
T1 construct: 125 μM full length SGK1 (Life Technologies Part #PR7358A); purchased Life Technologies PR7358A
T1 sequence (O00141 1-431): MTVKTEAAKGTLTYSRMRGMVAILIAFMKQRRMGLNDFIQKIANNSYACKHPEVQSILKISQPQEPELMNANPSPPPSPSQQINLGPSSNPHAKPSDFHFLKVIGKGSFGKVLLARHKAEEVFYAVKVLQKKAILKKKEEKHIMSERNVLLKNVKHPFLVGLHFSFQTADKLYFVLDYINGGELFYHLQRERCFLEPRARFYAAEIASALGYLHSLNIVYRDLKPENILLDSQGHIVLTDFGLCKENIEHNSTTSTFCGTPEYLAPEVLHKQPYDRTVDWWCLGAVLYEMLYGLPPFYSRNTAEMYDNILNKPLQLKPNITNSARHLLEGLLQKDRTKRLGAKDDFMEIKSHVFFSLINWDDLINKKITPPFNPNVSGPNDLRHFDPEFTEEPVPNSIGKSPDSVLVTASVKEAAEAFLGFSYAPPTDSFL
Assay: SGK1 inhibition Assay A (Caliper LabChip electrophoretic separation of fluorescent peptide substrate and phosphorylated product)
Assay type: biochemical
Conditions: Assay A; 20 μM ATP, 40 min incubation; read-out: SGK1 IC50

Molecule	IC50 [nM]
CS(=O)(=O)c1ccc(-c2cc(N3CCC[C@@H](NC(=O)Cc4ccccc4)C3)c3c(N)ncnn23)cc1 [Example 14, (R)-N-(1-(4-amino-7-(4-(methylsulfonyl)phenyl)pyrrolo[2,1-f][1,2,4]triazin-5-yl)piperidin-3-yl)-2-phenylacetamide, TFA]	941
(R)-3-(4-amino-5-(3-(pyrazine-2-carboxamido)piperidin-1-yl)pyrrolo[2,1-f][1,2,4]triazin-7-yl)-2,5-dihydro-1H-pyrrole-1-carboxylate [Example 540]	216
Nc1ncnn2c(C#Cc3ccncc3)cc(N3CCC[C@@H](NC(=O)c4ccc(Cl)s4)C3)c12 [Example 695, (R)—N-(1-(4-amino-7-(pyridin-4-ylethynyl)pyrrolo[2,1-f][1,2,4]triazin-5-yl)piperidin-3-yl)-5-chlorothiophene-2-carboxamide, TFA salt]	242
CN1CCN(CCOc2cc(Cl)sc2C(=O)N[C@@H]2CCCN(c3cc(-c4ccnc(F)c4)n4ncnc(N)c34)C2)CC1 [Example 167, (R)—N-(1-(4-amino-7-(2-fluoropyridin-4-yl)pyrrolo[2,1-f][1,2,4]triazin-5-yl)piperidin-3-yl)-5-chloro-3-(2-(4-methylpiperazin-1-yl)ethoxy)thiophene-2-carboxamide, 2 TFA]	1
CS(=O)(=O)c1ccc(-c2cc(N3CCCC(NC(=O)c4ccccn4)C3)c3c(N)ncnn23)cc1 (centres unmarked) [Example 2, N-(1-(4-amino-7-(4-(methylsulfonyl)phenyl)pyrrolo[2,1-f][1,2,4]triazin-5-yl)piperidin-3-yl)picolinamide, TFA]	81
CN1CCN(c2cccc(C(=O)N[C@@H]3CCCN(c4cc(-c5ccc(C#N)nc5)n5ncnc(N)c45)C3)n2)CC1 [Example 785, (R)—N-(1-(4-amino-7-(6-cyanopyridin-3-yl)pyrrolo[2,1-f][1,2,4]triazin-5-yl)piperidin-3-yl)-6-(4-methylpiperazin-1-yl)picolinamide]	7
CS(=O)(=O)c1ccc(-c2cc(N3CCC[C@@H](NC(=O)c4ccno4)C3)c3c(N)ncnn23)cc1 [Example 64, (R)-N-(1-(4-amino-7-(4-(methylsulfonyl)phenyl)pyrrolo[2,1-f][1,2,4]triazin-5-yl)piperidin-3-yl)isoxazole-5-carboxamide]	285
Nc1ncnn2c(-c3ccnc(C(F)(F)F)c3)cc(N3CCC[C@@H](NC(=O)c4ccc(Cl)s4)C3)c12 [Example 220, (R)-N-(1-(4-amino-7-(2-(trifluoromethyl)pyridin-4-yl)pyrrolo[2,1-f][1,2,4]triazin-5-yl)piperidin-3-yl)-5-chlorothiophene-2-carboxamide]	7
CC(C)(C)OC(=O)N[C@@H]1CCCCN(c2cc(-c3ccc(S(C)(=O)=O)cc3)n3ncnc(N)c23)C1 [Example 120, tert-butyl (R)-(1-(4-amino-7-(4-(methylsulfonyl)phenyl)pyrrolo[2,1-f][1,2,4]triazin-5-yl)azepan-3-yl)carbamate]	3400

Other lines, results leading:

IC50 [nM]	Molecule
2	Cc1ccc(C(=O)N[C@@H]2CCCN(c3cc(-c4ccnc(F)c4)n4ncnc(N)c34)C2)s1 [Example 131, N-[(3R)-1-[4-amino-7-(2-fluoropyridin-4-yl)pyrrolo[2,1-f][1,2,4]triazin-5-yl]piperidin-3-yl]-5-methylthiophene-2-carboxamide]
1	CC(=O)N1CC=C(c2cc(N3CCC[C@@H](NC(=O)c4sc(Cl)cc4OCCN4CCC(C)(N)CC4)C3)c3c(N)ncnn23)C1 [Example 300, (R)-N-(1-(7-(1-acetyl-2,5-dihydro-1H-pyrrol-3-yl)-4-aminopyrrolo[2,1-f][1,2,4]triazin-5-yl)piperidin-3-yl)-3-(2-(4-amino-4-methylpiperidin-1-yl)ethoxy)-5-chlorothiophene-2-carboxamide]
18	COC(=O)N1CC=C(c2cc(N3CCC[C@@H](NC(=O)c4sc5ccccc5c4OC4CCN(C)CC4)C3)c3c(N)ncnn23)C1 [Example 658, methyl (R)-3-(4-amino-5-(3-(3-((1-methylpiperidin-4-yl)oxy)benzo[b]thiophene-2-carboxamido)piperidin-1-yl)pyrrolo[2,1-f][1,2,4]triazin-7-yl)-2,5-dihydro-1H-pyrrole-1-carboxylate]
350	CN(C)CCOc1cc(Cl)sc1C(=O)N[C@@H]1CCCN(c2cc(C3=CCNCC3)n3ncnc(N)c23)C1 [Example 172, (R)—N-(1-(4-amino-7-(1,2,3,6-tetrahydropyridin-4-yl)pyrrolo[2,1-f][1,2,4]triazin-5-yl)piperidin-3-yl)-5-chloro-3-(2-(dimethylamino)ethoxy)thiophene-2-carboxamide, 3 TFA]
21	Nc1ncnn2c(C3=CCN(C(=O)[C@H]4CCCN4)C3)cc(N3CCC[C@@H](NC(=O)c4ccc(Cl)s4)C3)c12 [Example 889, N-((R)-1-(7-(1-(D-proly1)-2,5-dihydro-1H-pyrrol-3-y1)-4-aminopyrrolo[2,1-f][1,2,4]triazin-5-yl)piperidin-3-y1)-5-chlorothiopbene-2-carboxamide, TFA]
26	CC(=O)N1CC=C(c2cc(N3CCC[C@@H](NC(=O)c4ccc(S(C)(=O)=O)cc4)C3)c3c(N)ncnn23)C1 [Example 468, (R)-N-(1-(7-(1-acetyl-2,5-dihydro-1H-pyrrol-3-yl)-4-aminopyrrolo[2,1-f][1,2,4]triazin-5-yl)piperidin-3-yl)-4-(methylsulfonyl)benzamide]
16	CC(=O)N1CC=C(c2cc(N3CCC[C@@H](NC(=O)c4sc5ccccc5c4OCCN(C)C)C3)c3c(N)ncnn23)C1 [Example 662, (R)-N-(1-(7-(1-acetyl-2,5-dihydro-1H-pyrrol-3-yl)-4-aminopyrrolo[2,1-f][1,2,4]triazin-5-yl)piperidin-3-yl)-3-(2-(dimethylamino)ethoxy)benzo[b]thiophene-2-carboxamide]
33	CC(=O)N1CC=C(c2cc(N3CCC[C@@H](NC(=O)c4cccc(N5CC[C@H](O)C5)n4)C3)c3c(N)ncnn23)C1 [Example 779, N-((R)-1-(7-(1-acetyl-2,5-dihydro-1H-pyrrol-3-yl)-4-aminopyrrolo[2,1-f][1,2,4]triazin-5-yl)piperidin-3-yl)-6-((S)-3-hydroxypyrrolidin-1-yl)picolinamide]
7	CC(=O)N1CC=C(c2cc(N3CCC[C@@H](NC(=O)c4sc(Cl)cc4OC4CN(C)C4)C3)c3c(N)ncnn23)C1 [Example 576, (R)-N-(1-(7-(1-acetyl-2,5-dihydro-1H-pyrrol-3-yl)-4-aminopyrrolo[2,1-f][1,2,4]triazin-5-yl)piperidin-3-yl)-5-chloro-3-((1-methylazetidin-3-yl)oxy)thiophene-2-carboxamide]
5	CC(=O)N1CC=C(c2cc(N3CCC[C@@H](NC(=O)c4sc(Cl)cc4OC4CCNC4)C3)c3c(N)ncnn23)C1 (stereo partly drawn) [Example 636, N-((R)-1-(7-(1-acetyl-2,5-dihydro-1H-pyrrol-3-yl)-4-aminopyrrolo[2,1-f][1,2,4]triazin-5-yl)piperidin-3-y1)-5-chloro-3-(pyrrolidin-3-yloxy)thiophene-2-carboxamide]
14	COC(=O)N1CC=C(c2cc(N3CCC[C@@H](NC(=O)c4sc(Cl)cc4OCCN4CC5(COC5)C4)C3)c3c(N)ncnn23)C1 [Example 289, Methyl (R)-3-(5-(3-(3-(2-(2-oxa-6-azaspiro[3.3]heptan-6-yl)ethoxy)-5-chlorothiophene-2-carboxamido)piperidin-1-yl)-4-aminopyrrolo[2,1-f][1,2,4]triazin-7-yl)-2,5-dihydro-1H-pyrrole-1-carboxylate]
